The values below are quoted from earlier work in US20130190388A1, “Methods and Compositions Related to DLK-1 and the P38 MAPK Pathway in Nerve Regeneration” (University of Utah Research Foundation, priority 2008, published 2013).

Each structure is given as a SMILES string.

For series [1], the system named is Magellan (Phr-1) growth cone phenotype. To be noted: Phr-1 (Magellan) mutant neurons.
The test system of series [2] is adult DRG neurons. To be noted: inhibiting p38 signaling; reduced from about 65% without inhibitor.

Take `CC(=O)O[C@H]1C(=O)[C@@]2(C)[C@H]([C@H](OC(=O)c3ccccc3)[C@]3(O)C[C@H](OC(=O)[C@H](O)[C@@H](NC(=O)c4ccccc4)c4ccccc4)C(C)=C1C3(C)C)[C@]1(OC(C)=O)CO[C@@H]1C[C@@H]2O` [Taxol]: the “growth cone phenotype (expanded region of disorganized microtubules)” value in series [1] is “rescued”.

As to `C[S+]([O-])c1ccc(-c2nc(-c3ccncc3)c(-c3ccc(F)cc3)[nH]2)cc1` (centres unmarked) [SB203580], the “regeneration in vitro by adult DRG neurons” value in series [2] is 10%.
